Reference: patent US11028095B2, “Spiro-lactam and bis-spiro-lactam NMDA receptor modulators and uses thereof” (Aptinyx Inc., priority 2016, dated 2021)
pEC50: −log10 of the molar value. Read-outs that look alike come from different tables or passages of the source.

Key:
[1] = target: T1, NMDAR2D expressing HEK cell membranes (Homo sapiens, UniProt O15399); assay: NMDAR agonist assay, [3H]MK-801 binding, NMDAR2D; format: biochemical; conditions: 50 μM glutamate; relative to 1 mM glycine
T1 construct: expressed in transfected cells; host or cells: HEK cells (membrane extract)
T1 sequence (O15399 28-1336, other chains not shown): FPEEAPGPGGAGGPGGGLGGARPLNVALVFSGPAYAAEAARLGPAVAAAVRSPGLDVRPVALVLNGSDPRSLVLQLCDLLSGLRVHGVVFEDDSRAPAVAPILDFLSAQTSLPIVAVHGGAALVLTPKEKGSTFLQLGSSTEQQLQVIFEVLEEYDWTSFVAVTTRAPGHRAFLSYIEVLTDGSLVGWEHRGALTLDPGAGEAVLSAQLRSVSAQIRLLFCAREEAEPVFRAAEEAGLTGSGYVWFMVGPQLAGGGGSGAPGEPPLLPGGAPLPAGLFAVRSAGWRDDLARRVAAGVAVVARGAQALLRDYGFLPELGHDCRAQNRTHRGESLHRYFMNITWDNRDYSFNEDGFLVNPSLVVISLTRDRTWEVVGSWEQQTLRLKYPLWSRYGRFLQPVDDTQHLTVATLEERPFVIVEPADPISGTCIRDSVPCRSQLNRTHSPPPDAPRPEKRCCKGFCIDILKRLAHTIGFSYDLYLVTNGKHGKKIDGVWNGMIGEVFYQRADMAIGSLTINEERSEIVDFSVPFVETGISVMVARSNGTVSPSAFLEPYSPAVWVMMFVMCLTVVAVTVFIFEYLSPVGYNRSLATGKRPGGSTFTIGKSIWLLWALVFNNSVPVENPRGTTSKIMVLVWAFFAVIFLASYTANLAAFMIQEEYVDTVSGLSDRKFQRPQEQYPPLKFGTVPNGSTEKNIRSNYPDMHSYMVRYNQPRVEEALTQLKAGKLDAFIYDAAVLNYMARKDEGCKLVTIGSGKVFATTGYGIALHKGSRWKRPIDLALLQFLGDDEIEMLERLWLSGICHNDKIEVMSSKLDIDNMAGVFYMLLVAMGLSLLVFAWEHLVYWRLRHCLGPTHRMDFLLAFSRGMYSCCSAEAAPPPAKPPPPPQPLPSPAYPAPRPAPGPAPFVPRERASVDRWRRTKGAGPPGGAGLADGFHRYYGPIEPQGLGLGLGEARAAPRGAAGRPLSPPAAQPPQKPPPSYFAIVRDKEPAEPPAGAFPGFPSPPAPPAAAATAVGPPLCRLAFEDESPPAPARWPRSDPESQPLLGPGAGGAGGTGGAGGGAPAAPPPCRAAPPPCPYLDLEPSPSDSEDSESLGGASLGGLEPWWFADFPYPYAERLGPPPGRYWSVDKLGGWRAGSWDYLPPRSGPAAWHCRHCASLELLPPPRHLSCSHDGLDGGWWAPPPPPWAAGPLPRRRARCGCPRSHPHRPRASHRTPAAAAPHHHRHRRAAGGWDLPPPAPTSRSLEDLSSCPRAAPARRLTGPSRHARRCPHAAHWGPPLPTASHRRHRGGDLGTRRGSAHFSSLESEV
Protocol: (§1) (nonequilibrium conditions).
(§2) The baseline value was determined from the best fit curve of the DPM values modeled using the GraphPad program and the log(agonist) vs. response(three parameters) algorithm was then subtracted from all points in the dataset.

[2] = target: T2, NMDAR2C expressing HEK cell membranes (Homo sapiens, UniProt Q05586+Q14957); assay: NMDAR agonist assay, [3H]MK-801 binding, NMDAR2C; format: biochemical
T2 construct: expressed in transfected cells; host or cells: HEK cells (membrane extract)
T2 sequence (Q14957 20-1233, other chains not shown): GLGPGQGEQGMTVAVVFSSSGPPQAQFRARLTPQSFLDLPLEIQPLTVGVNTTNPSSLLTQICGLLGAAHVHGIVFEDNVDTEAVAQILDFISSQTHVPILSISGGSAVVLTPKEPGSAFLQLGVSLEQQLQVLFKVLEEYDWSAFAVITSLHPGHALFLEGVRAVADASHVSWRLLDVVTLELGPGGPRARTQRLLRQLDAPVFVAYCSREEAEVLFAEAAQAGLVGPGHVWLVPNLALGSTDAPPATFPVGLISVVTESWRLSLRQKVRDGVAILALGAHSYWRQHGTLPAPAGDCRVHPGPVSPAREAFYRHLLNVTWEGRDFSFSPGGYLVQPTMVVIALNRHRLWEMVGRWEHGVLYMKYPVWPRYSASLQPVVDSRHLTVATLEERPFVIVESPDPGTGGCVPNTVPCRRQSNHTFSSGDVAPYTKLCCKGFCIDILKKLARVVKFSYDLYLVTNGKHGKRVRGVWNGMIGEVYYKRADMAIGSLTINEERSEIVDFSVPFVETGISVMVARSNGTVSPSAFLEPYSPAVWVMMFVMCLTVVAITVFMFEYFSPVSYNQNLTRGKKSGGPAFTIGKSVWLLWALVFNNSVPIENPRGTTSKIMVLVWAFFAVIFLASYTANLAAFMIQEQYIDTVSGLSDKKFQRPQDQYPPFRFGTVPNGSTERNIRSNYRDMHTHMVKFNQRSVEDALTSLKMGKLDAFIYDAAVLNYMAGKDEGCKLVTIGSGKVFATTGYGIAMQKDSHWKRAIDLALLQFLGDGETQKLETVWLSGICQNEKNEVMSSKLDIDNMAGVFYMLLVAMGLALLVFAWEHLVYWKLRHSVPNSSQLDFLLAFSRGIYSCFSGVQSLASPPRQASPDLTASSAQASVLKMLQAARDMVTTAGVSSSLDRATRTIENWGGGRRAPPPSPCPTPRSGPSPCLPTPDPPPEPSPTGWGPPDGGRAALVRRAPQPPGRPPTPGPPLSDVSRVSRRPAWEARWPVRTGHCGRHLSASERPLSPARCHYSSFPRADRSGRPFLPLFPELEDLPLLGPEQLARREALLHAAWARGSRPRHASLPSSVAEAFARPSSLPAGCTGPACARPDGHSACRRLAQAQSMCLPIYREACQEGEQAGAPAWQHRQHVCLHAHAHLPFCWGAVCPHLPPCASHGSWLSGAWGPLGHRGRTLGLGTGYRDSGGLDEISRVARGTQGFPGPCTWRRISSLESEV
Protocol: as §1, §2

[3] = target: T3, NMDAR2B expressing HEK cell membranes (Homo sapiens, UniProt Q13224); assay: NMDAR agonist assay, [3H]MK-801 binding, NMDAR2B; format: biochemical; conditions: 50 μM glutamate
T3 construct: expressed in transfected cells; host or cells: HEK cells (membrane extract)
T3 sequence (Q13224 27-1484, other chains not shown): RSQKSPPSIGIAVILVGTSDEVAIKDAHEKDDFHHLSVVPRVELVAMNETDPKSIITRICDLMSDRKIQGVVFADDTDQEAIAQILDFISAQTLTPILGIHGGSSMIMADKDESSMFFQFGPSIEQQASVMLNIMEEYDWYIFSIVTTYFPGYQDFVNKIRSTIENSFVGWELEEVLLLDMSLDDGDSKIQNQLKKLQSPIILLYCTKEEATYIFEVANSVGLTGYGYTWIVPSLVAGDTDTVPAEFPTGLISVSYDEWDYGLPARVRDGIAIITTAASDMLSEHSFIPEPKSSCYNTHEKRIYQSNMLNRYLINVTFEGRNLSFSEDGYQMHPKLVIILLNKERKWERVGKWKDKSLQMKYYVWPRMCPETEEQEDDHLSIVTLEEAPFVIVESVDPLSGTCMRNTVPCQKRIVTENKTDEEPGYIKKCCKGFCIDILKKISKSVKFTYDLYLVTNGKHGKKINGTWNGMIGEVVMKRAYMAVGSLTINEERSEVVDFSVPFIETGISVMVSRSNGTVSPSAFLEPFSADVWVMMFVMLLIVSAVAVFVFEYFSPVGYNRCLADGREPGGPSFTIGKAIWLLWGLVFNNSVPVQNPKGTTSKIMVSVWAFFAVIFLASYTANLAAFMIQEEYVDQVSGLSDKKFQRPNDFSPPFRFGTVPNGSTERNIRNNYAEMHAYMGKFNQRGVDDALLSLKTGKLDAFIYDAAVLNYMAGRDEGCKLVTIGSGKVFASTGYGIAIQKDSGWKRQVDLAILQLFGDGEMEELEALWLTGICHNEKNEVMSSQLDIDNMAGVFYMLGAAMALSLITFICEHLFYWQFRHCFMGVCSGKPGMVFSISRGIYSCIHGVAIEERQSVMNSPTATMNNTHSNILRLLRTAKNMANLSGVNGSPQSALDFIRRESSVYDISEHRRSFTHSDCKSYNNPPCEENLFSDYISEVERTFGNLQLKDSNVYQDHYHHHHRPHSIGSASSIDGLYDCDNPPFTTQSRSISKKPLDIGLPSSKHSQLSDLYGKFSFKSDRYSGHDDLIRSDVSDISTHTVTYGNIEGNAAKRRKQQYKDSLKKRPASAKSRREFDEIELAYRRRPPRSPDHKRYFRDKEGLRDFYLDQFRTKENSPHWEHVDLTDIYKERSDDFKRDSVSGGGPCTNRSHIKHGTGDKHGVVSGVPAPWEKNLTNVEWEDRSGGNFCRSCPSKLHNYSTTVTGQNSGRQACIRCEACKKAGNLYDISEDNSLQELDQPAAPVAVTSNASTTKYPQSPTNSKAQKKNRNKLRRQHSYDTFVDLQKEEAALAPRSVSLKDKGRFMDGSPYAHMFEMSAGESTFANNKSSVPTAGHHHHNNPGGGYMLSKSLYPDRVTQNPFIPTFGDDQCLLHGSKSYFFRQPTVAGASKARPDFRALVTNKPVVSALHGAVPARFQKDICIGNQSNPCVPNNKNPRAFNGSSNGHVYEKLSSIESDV
Protocol: as §1, §2

Plasma stability (Rat) = format: in vitro ADME
Protocol: (§3) Plasma stability of disclosed compounds was investigated. The following table indicates the percent of compound remaining after 60 minutes.

[4] = Microsomal stability (Rat); format: in vitro ADME; conditions: rat microsomes
Protocol: (§4) Microsomal stability of disclosed compounds was investigated. The following table indicates the percent of compound remaining after 60 minutes.

[5] = target: T4, NMDAR2A expressing HEK cell membranes (Homo sapiens, UniProt Q12879); assay: NMDAR agonist assay, [3H]MK-801 binding, NMDAR2A; format: biochemical; conditions: 50 μM glutamate
T4 construct: expressed in transfected cells; host or cells: HEK cells (membrane extract)
Protocol: as §1, §2

[6] = Microsomal stability (Human); format: in vitro ADME; conditions: human microsomes
Protocol: as §4

[7] = tested on: positive (hedonic) 50-kHz ultrasonic vocalizations (USVs); assay: Positive Emotional Learning (PEL) test; format: in vivo; conditions: rat, PO, one hour after administration
Protocol: Experiments were conducted as described in Burgdorf et al., “The effect of selective breeding for differential rates of 50-kHz ultrasonic vocalizations on emotional behavior in rats,” Devel. […] Rat 50-kHz ultrasonic vocalization (hedonic USVs) is a validated model for the study of positive affective state and is best elicited by rough-and-tumble play.
The PEL assay measures the acquisition of positive (hedonic) 50-kHz ultrasonic vocalizations (USVs) to a social stimulus, heterospecific rough and tumble play stimulation. Heterospecific rough-and-tumble play stimulation was administered by the experimenter's right hand. One hour after administration of test compound or vehicle negative control (0.5% sodium carboxymethyl cellulose in 0.9% sterile saline vehicle), animals received 3 min of heterospecific rough-and-tumble play that consisted of alternating 15 sec blocks of heterospecific play and 15 sec of no-stimulation. […] Frequency modulated 50-kHz USVs that occurred during each of the no-stimulation periods were quantified to measure PEL. Animals were not habituated to play stimulation before testing. Positive emotional learning was measured during the conditioned stimulus (CS) trials preceding the tickle unconditioned stimulus (UCS) trials. Animals received 15 second trials consisting of 6 CS and 6 UCS trials each (3 min total).

Plasma stability (Human) = format: in vitro ADME
Protocol: as §3

[8] = target: T5, NMDAR2D expressing HEK cell membranes (Homo sapiens, UniProt O15399+Q05586); assay: NMDAR agonist assay, [3H]MK-801 binding, NMDAR2D; format: biochemical; conditions: for Emax: read-out: NMDAR2D: % maximal [3H]MK-801 binding relative to 1 mM glycine
T5 construct: expressed in transfected cells; host or cells: HEK cells (membrane extract)
T5 sequence (O15399 28-1336, other chains not shown): as the sequence (O15399 28-1336, other chains not shown) above
Protocol: as §1, §2

[9] = target: T6, NMDAR2B expressing HEK cell membranes (Homo sapiens, UniProt Q05586+Q13224); assay: NMDAR agonist assay, [3H]MK-801 binding, NMDAR2B; format: biochemical; conditions: [3H]MK-801 binding
T6 construct: expressed in transfected cells; host or cells: HEK cells (membrane extract)
Protocol: as §1, §2

[10] = Oral pharmacokinetics (plasma, brain, CSF); format: in vivo; conditions: Sprague Dawley rats, per os, 10 mg/kg; for AUC(0-t) / bioavailability / Tmax / Cmax: rat, plasma, po; for Tmax: normal saline, read-out: Tmax; for Cmax: read-out: Cmax
Protocol: In another experiment, Sprague Dawley rats were dosed per os using a normal saline formulation containing 10 mg/kg of the compounds identified in the table below. Plasma, brain, and CSF samples were analyzed at various time points over a 24 hour period. The table below summarizes the results of the oral pharmacokinetics.

IV pharmacokinetics = format: in vivo; conditions: rat, in vivo, 2 mg/kg, Sprague Dawley rats, normal saline; for C0: read-out: C0; for Vd: read-out: Vss
Protocol: Sprague Dawley rats were dosed intravenously using a normal saline formulation containing 2 mg/kg of the compounds identified in the below table. The table below summarizes the results of the IV pharmacokinetics.

[11] = target: T7, NMDAR2A expressing HEK cell membranes (Homo sapiens, UniProt Q05586+Q12879); assay: NMDAR agonist assay, [3H]MK-801 binding, NMDAR2A; format: biochemical; conditions: NMDAR2A: log EC50, 50 μM glutamate; [3H]MK-801 binding
T7 construct: expressed in transfected cells; host or cells: HEK cells (membrane extract)
Protocol: as §1, §2

[12] = tested on: Sciatic nerve chronic constriction nerve injury; assay: Bennett nerve injury assay (mechanical analgesia, paw withdrawal threshold); format: in vivo, Sprague Dawley rats; conditions: 150 mg/kg PO
Protocol: The Bennett model of mechanical analgesia is used to assess the analgesic effects of compounds as measured by paw withdrawal threshold. Bennett G J, Xie Y K, “A peripheral mononeuropathy in rat that produces disorders of pain sensation like those seen in man,” Pain 33:87-107, 1988. […] Vehicle animals receive the surgery and then receive vehicle rather than test compound. Animals were tested 1 hr, 24 h and 1 wk post-test compound or vehicle administration.
Male 2-3 month old Sprague Dawley rats were used. Harlan was the supplier for all studies. Rats were housed in Lucite cages with aspen wood chip bedding, maintained on a 12:12 light:dark cycle (lights on at 5 AM), and given ad libitum access to Purina lab chow (USA) and tap water throughout the study.
Rats were anesthetized using inhaled isoflurane (2.5%). Sciatic nerve chronic constriction nerve injury surgery was performed as previously described (Bennett and Xie, 1988). An incision (˜1.5 cm in length) was made with a scalpel blade dorsally through skin on the right hind limb, parallel and posterior to femur. Using a small pointed hemostat, the biceps femoris and gluteus superficialis muscles were separated. Using curved blunt forceps, the common sciatic nerve was isolated and exposed. For the mechanical analgesia studies, the whole sciatic nerve was ligated. Using hemostats/forceps and chromic gut (5-0), the nerve was loosely ligated with a square knot; 3 ligatures, 1 mm apart were placed on the nerve. […] Testing occurred approximately 2 weeks post-surgery.
During testing, rats were acclimated to the surface of a suspended wire mesh grid (1 cm×1 cm, with the wire being 0.3 cm in diameter) for 15-20 min Starting from the smallest, each Von Frey filament was pressed perpendicularly to the plantar surface of the affected (ipsilateral) hind paw until slightly bent and then held for 6 second. If an obvious hind paw withdrawal or a flinching behavior immediately after the withdrawal of the filament was not observed, the next larger filament was used in the same manner. In case of a response, a lower filament was used. This was repeated until six responses were collected.
For all studies, animals were baselined prior to study start to test for allodynia (defined as a paw withdrawal threshold under 5). A subset of animals was tested with gabapentin (150 mg/kg, PO) to ensure at least 50% analgesia. Once it was confirmed animals were ready for study initiation, animals were balanced across groups. All study investigators were blind to treatment conditions. Animals were dosed with 0.1, 1 or 10 mg/kg of test compound via oral gavage (PO), control sets of animals were dosed with gabapentin (150 mg/kg, PO) or vehicle (0.5% Na-CMC in 0.9% sterile saline, PO). Testing occurred 1 h post-dosing with animals retested 24 hrs and 1 week post-dosing. The percent analgesia calculations for each animal were made using the following equation: % analgesia=[(log(x)−y)/((log (z)−y)]*100, where x=the paw withdrawal threshold for the drug-treated animal in grams, y=the average of the log(x) values for the vehicle treated group, and z=the paw withdrawal threshold for naïve animals in grams (historical value of 15 used). The results for Compound AD, where the percentage of analgesia is measured at 1 hour, 24 hours, and 1 week after compound administration are as follows: for 0.1 mg/kg dose: 37.8% at 1 h, 29.7% at 24 h, and 63.1% at 1 wk; for 1 mg/kg dose: 48.8% at 1 h, 20.6% at 24 h, and 19.8% at 1 wk; and for 10 mg/kg dose: 70.3% at 1 h, 38.8% at 24 h, and 11.3% at 1 wk.

[13] = 50 μM glutamate, relative to 1 mM glycine, read-out: NMDAR2C A: % maximal [3H]MK-801 binding relative to 1 mM glycine

O=C1NCC12CCC1(CNC1=O)N2Cc1ccccc1 (single isomer, unassigned) [AC-1, 5-benzyl-2,5,8-triazadispiro[3.1.36.24]undecane-1,7-dione]
NMDAR2D: % maximal [3H]MK-801 binding relative to 1 mM glycine [1]: + (<100%=+) | Emax [2, 13]: < 100% | EC50 ([3]; [3H]MK-801 binding, read-out: NMDAR2B log EC50 (converted)): < 1 nM | NMDAR2B: % maximal [3H]MK-801 binding relative to 1 mM glycine [3]: + (<100%=+) | Plasma (Rat): percent of compound remaining after 60 minutes (Plasma stability (Rat)): 100% | Microsomal (Rat): percent of compound remaining after 60 minutes [4]: 100% | NMDAR2A: % maximal [3H]MK-801 binding relative to 1 mM glycine [5]: + (<100%=+) | Microsomal (Human): percent of compound remaining after 60 minutes [6]: 95% | Max Effect (mean number of 50 kHz USVs per 15 seconds) ([7]; dose 0.001-1 mg/kg): * (*: 6-10.9) | Plasma (Human): percent of compound remaining after 60 minutes (Plasma stability (Human)): 100%

CC(C)C(=O)N1C2(CCC13CNC3=O)CNC2=O (single isomer, unassigned) [AH, 5-isobutyryl-2,5,8-triazadispiro[3.1.36.24]undecane-1,7-dione]
EC50 ([8]; 50 μM glutamate, [3H]MK-801 binding, read-out: NMDAR2D: log EC50 (converted)): < 1 nM | Emax ([8]; 50 μM glutamate, relative to 1 mM glycine): < 100% | EC50 ([2]; 50 μM glutamate, [3H]MK-801 binding, read-out: NMDAR2C: log EC50 (converted)): < 1 nM | Emax [2, 13]: < 100% | EC50 ([9]; 50 μM glutamate, read-out: NMDAR2B log EC50 (converted)): < 1 nM | NMDAR2B: % maximal [3H]MK-801 binding relative to 1 mM glycine [3]: + (<100%=+) | Plasma (Rat): percent of compound remaining after 60 minutes (Plasma stability (Rat)): 100% | Microsomal (Rat): percent of compound remaining after 60 minutes [4]: 100% | CSF Cmax [10]: 123 ng/mL | Brain Cmax [10]: 45.8 ng/mL | AUC(0-t) ([10]; Sprague Dawley): 2570 ng·h/mL | bioavailability ([10]; Sprague Dawley): 17% | Tmax ([10]; Sprague Dawley): 1.67 h | Cmax ([10]; Sprague Dawley): 655 ng/mL | AUC(0-t) (IV pharmacokinetics; Sprague Dawley, iv): 3020 ng·h/mL | clearance (IV pharmacokinetics; Sprague Dawley, iv): 10.9 mL/min/kg | half-life (IV pharmacokinetics; Sprague Dawley, iv): 3.68 h | C0 (IV pharmacokinetics; Sprague Dawley, iv): 3870 ng/mL | Vd (IV pharmacokinetics; Sprague Dawley, iv): 1.1 L/kg | EC50 ([5]; [3H]MK-801 binding, read-out: NMDAR2A: log EC50 (converted)): < 1 nM | NMDAR2A: % maximal [3H]MK-801 binding relative to 1 mM glycine [5]: + (<100%=+) | Microsomal (Human): percent of compound remaining after 60 minutes [6]: 100% | Max Effect (mean number of 50 kHz USVs per 15 seconds) ([7]; dose 0.1 mg/kg): ** (**: 11-16.9) | Plasma (Human): percent of compound remaining after 60 minutes (Plasma stability (Human)): 95%

O=C1NCC12CCC1(CNC1=O)N2 (single isomer, unassigned) [AJ, 2,5,8-triazadispiro[3.1.36.24]undecane-1,7-dione]
pEC50 ([8]; NMDAR2D: log EC50, 50 μM glutamate, [3H]MK-801 binding): > 9.00 | Emax [8]: < 100% | pEC50 ([2]; NMDAR2C: log EC50, 50 μM glutamate, [3H]MK-801 binding): > 9.00 | Emax ([2]; read-out: NMDAR2C: % maximal [3H]MK-801 binding relative to 1 mM glycine): < 100% | pEC50 ([9]; NMDAR2B: log EC50, 50 μM glutamate): > 9.00 | NMDAR2B: % maximal [3H]MK-801 binding relative to 1 mM glycine [3]: + (<100%=+) | Plasma (Rat): percent of compound remaining after 60 minutes (Plasma stability (Rat)): 68% | Microsomal (Rat): percent of compound remaining after 60 minutes [4]: 100% | CSF Cmax [10]: 71.9 ng/mL | Brain Cmax [10]: 0 ng/mL | AUC(0-t) [10]: 2060 ng·h/mL | bioavailability [10]: 20% | Tmax [10]: 0.5 h | Cmax [10]: 1160 ng/mL | AUC(0-t) (IV pharmacokinetics): 2090 ng·h/mL | clearance (IV pharmacokinetics): 15.4 mL/min/kg | half-life (IV pharmacokinetics): 0.44 h | C0 (IV pharmacokinetics): 4860 ng/mL | Vd (IV pharmacokinetics): 0.47 L/kg | pEC50 [11]: > 9.00 | NMDAR2A: % maximal [3H]MK-801 binding relative to 1 mM glycine [5]: + (<100%=+) | Microsomal (Human): percent of compound remaining after 60 minutes [6]: 100% | Max Effect (mean number of 50 kHz USVs per 15 seconds) ([7]; dose 0.1 mg/kg): ** (**: 11-16.9) | Plasma (Human): percent of compound remaining after 60 minutes (Plasma stability (Human)): 90%

NCC1(CC(=O)O)CCCCC1 [gabapentin, reference compound]
analgesia, control group of the study ([12]; 1 week post-administration): under 5% | percentage of analgesia, example (typical) control value ([12]; 1 wk): 0% | percentage of analgesia, example (typical) control value ([12]; 1 h): 72% | analgesia, control group of the study ([12]; 1 h post-administration): at least 50% | percentage of analgesia, example (typical) control value ([12]; 24 h): 16% | analgesia, control group of the study ([12]; 24 h post-administration): under 5%
